This note sets out measurements from article PMC2600811 (Neuropharmacology, 2008).

Assay [1] has as its target T1, rat mGluR1a (Rattus norvegicus, UniProt P23385). The note with it: 500 nM compound, absence of glutamate.
The next assay deals with mGluR1a (Rattus norvegicus, UniProt P23385). Put plainly: ERK1/2 phosphorylation assay. The note with it: for P-ERK1/2 response as % of the response to a maximal concentration of glutamate: 1 µM PAM, no exogenously added agonist.
The target of assay [2] is T1, rat mGluR1a. The assay can be described thus: Calcium mobilization. Format: cell-based. The note with it: fixed 1 µM compound, 10 min pre-incubation. On the technique in general: Calcium flux is commonly read through the fluorescence of an indicator in the cells.
Assay [3] deals with T2, rat mGlu1a receptor (Rattus norvegicus, UniProt P23385). The note with it: saturation binding, BHK-mGluR1a membranes.
In assay [4] the target is T2, rat mGlu1a receptor. Put plainly: biochemical.

T1 sequence (P23385 19-1199): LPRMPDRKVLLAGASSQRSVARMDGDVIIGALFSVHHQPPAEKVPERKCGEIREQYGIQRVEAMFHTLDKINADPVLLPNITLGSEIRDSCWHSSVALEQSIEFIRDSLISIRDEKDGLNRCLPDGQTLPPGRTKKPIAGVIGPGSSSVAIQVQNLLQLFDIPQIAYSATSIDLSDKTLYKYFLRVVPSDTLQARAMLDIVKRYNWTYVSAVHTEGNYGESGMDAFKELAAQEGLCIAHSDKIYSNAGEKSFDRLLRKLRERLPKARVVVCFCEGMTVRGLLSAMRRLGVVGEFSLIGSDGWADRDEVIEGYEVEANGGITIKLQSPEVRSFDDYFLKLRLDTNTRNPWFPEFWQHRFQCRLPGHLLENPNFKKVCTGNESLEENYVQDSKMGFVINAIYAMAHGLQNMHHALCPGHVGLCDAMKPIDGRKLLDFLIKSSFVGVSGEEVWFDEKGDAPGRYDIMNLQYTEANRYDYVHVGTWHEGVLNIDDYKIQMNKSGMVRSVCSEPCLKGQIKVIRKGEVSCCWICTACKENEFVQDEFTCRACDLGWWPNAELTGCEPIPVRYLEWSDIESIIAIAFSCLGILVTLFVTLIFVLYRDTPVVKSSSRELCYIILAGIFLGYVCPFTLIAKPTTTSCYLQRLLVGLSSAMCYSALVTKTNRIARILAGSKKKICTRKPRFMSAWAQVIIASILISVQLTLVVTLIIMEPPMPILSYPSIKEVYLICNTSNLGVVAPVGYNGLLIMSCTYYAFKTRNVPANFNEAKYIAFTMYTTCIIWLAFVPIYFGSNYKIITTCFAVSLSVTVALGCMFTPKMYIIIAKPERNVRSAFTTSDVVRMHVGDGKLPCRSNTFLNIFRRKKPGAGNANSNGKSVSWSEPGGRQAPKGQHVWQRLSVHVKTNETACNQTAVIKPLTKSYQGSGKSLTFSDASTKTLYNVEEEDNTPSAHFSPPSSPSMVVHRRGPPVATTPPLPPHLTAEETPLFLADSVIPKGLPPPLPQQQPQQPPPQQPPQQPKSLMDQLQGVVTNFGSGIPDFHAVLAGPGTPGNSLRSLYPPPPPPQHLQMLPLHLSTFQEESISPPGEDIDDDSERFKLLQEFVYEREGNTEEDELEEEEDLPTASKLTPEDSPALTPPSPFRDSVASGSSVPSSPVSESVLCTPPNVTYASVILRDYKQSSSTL
mGluR1a, sequence (P23385 19-1199): as above
T2 sequence (P23385 19-1199): as above

For orientation: EC50 means the midpoint of the concentration-response curve. A low value points to a more potent agent. On to `Cc1ccc(S(=O)(=O)N2CCC[C@H]2c2ccc(F)cc2)cc1` (racemic) [Ro 67-7476, (S)-2-(4-fluorophenyl)-1-(toluene-4-sulfonyl)pyrrolidine], for which the “increase of basal cAMP accumulation” value at rat mGluR1a [1] is 8%. At mGluR1a, the EC50 is 163 ± 44.8 nM and the “P-ERK1/2 response as % of the response to a maximal concentration of glutamate” value (“P-ERK1/2 response as % of the response” for short) was 120.4 ± 1.9%. Moreover, on rat mGluR1a [2], the “leftward shift of the glutamate concentration-response curve (calcium)” value (shortened to “leftward shift … (calcium)”) is roughly 4.5 fold.
The term Kd denotes the constant that tells how readily two partners part at equilibrium. Read a high Kd as lower affinity. As for `O=C(Cc1ccccc1)c1ccc2nc3c(cc2c1)CCCO3` [R214127, 1-(3,4-dihydro-2H-pyrano[2,3-b]quinolin-7-yl)-2-phenyl-1-ethanone], the Bmax at rat mGlu1a receptor [3] is listed as 3817 ± 226 fmol/mg of protein. Further, the “effect on basal ERK1/2 phosphorylation” value at mGluR1a (antagonist alone (100 nM R214127 or 10 µM LY341495)) is on record as “does not effect basal ERK1/2 phosphorylation”. Further, the Kd on rat mGlu1a receptor [4] was determined as 2.8 ± 0.3 nM.
On to `CCOC(=O)NC(=O)C(c1ccccc1)c1ccccc1` [Ro 01-6128, ethyl diphenylacetylcarbamate], for which the “increase of basal cAMP accumulation” value at rat mGluR1a [1] is recorded as “approximately 7%”. For the same compound, at mGluR1a, the “P-ERK1/2 response as % of the response” value is 119.5 ± 17.3%. The “leftward shift … (calcium)” value at rat mGluR1a [2] is on record as “approximately 2 fold”.
On to `CCCCOC(=O)NC(=O)C1c2ccccc2Oc2ccccc21` [Ro 67-4853, butyl (9H-xanthene-9-carbonyl)carbamate], for which the “increase of basal cAMP accumulation” value on rat mGluR1a [1] is given as 30%. At mGluR1a, the EC50 was determined as 9.2 ± 6.2 nM and the “P-ERK1/2 response as % of the response” value was 114.4 ± 29.0%. In addition, on rat mGluR1a [2], the “leftward shift … (calcium)” value is reported as roughly 15 fold.
